16 compounds from patent US10399940B2, “Substituted pyrrolidines and methods of use” (AbbVie S.à.r.l., priority 2016, dated 2019) can be followed below.

The test addresses T1, F508delCFTR (Homo sapiens, UniProt P13569, DEL508-508).
T1 construct: expressed in transfected cells; host or cells: CFBE41o- (human lung derived epithelial cell line), doxycycline-inducible expression
Put plainly: Cell Surface Expression-Horse Radish Peroxidase (CSE-HRP) assay. Type of test: cell-based. The settings on record: CFBE41o-F508delCFTR-HRP cells; for Maximum % activity (with co-corrector): with co-corrector (2 μM); for Maximum % activity (with co-corrector) / Maximum % activity (without co-corrector): normalized to on-plate positive control, highest concentration 20 μM. Put shortly: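 Surface F508delCFTR-HRP was read by luminol luminescence after 18–24 h compound exposure at 33 °C, without or with 2 μM co-corrector. Doses were eight 3-fold steps from 20 μM, in doxycycline-induced (0.5 μg/mL, 72 h) CFBE41o- cells. % activity was scaled to the on-plate 2 μM positive control minus DMSO; EC50 came from a variable-slope sigmoid fit.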

Setting [1] is: test compound without co-corrector, 18-24 hours at 33° C., read-out: EC50 (without co-corrector).
Setting [2] is: with co-corrector (2 μM of 3-[(2R,4R)-4-({[1-(2,2-difluoro-1,3-benzodioxol-5-yl)cyclopropyl]carbonyl}amino)-7-methoxy-3,4-dihydro-2H-chromen-2-yl]benzoic acid), read-out: EC50 (with co-corrector).

Where two headings read alike, the source gives them in different places.

T1 sequence (P13569 with tags, fused parts or gaps DEL508-508): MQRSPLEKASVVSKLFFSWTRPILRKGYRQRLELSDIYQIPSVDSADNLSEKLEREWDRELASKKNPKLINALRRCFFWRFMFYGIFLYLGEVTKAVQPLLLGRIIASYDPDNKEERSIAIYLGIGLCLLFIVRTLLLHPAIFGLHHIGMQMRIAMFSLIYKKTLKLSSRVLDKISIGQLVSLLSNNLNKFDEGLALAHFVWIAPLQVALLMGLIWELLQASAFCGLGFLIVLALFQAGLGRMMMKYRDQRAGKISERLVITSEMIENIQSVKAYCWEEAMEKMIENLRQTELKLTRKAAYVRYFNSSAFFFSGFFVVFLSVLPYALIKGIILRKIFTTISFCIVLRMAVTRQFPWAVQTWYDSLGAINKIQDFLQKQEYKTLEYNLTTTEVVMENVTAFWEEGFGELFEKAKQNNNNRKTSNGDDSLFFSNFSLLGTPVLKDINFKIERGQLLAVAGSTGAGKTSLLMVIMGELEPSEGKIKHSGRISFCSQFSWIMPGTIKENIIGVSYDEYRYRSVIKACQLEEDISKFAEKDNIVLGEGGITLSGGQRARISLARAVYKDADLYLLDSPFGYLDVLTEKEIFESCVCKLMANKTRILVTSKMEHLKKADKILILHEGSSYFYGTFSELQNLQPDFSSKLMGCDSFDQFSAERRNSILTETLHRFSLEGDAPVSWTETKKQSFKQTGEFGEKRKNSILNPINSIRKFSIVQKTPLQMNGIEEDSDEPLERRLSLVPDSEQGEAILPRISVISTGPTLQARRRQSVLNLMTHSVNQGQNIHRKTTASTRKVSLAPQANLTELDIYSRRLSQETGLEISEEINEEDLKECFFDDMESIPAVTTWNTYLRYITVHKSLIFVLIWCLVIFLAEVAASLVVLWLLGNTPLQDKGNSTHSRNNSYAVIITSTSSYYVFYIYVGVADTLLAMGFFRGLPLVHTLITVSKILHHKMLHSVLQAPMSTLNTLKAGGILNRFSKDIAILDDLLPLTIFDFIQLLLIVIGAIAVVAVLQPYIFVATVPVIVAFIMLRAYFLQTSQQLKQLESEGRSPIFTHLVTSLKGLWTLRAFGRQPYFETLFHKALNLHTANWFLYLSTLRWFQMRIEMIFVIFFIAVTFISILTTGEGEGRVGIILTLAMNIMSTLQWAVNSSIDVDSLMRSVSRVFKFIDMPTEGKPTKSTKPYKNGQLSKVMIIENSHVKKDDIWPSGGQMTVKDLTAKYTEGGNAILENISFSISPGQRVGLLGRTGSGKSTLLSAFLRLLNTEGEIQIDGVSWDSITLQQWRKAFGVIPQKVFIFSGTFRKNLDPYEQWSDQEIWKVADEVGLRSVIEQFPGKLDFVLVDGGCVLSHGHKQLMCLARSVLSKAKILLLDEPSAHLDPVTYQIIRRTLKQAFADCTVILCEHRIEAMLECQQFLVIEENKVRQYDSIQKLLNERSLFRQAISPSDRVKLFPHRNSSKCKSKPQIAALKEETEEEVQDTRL

As to `COc1ncc(C2CCC2)cc1CO[C@H]1[C@H](C(C)(C)C)[C@@H](C(=O)O)N(C(=O)O[C@@H](C)C(F)(F)F)[C@H]1c1cccnc1OC(C)C` [Example 267, (2S,3R,4S,5S)-3-tert-butyl-4-[(5-cyclobutyl-2-methoxypyridin-3-yl)methoxy]-5-{2-[(propan-2-yl)oxy]pyridin-3-yl}-1-({[(2S)-1,1,1-trifluoropropan-2-yl]oxy}carbonyl)pyrrolidine-2-carboxylic acid], the “Maximum % activity (with co-corrector)” value was “+++ (≥350)”; the “Maximum % activity (without co-corrector)” value was “++ (≥100 and <200)”. The EC50 under setting [1] fell in the range of 1000 to 10000 nM. Further, the EC50 under setting [2] was less than 1000 nM.

Take `COc1ncc(C(F)(F)F)cc1CO[C@H]1[C@H](C(C)(C)C)[C@@H](C(=O)O)N(C(=O)OC(C)C)[C@H]1c1cccc(Br)c1` [Example 124, (2S,3R,4S,5S)-5-(3-bromophenyl)-3-tert-butyl-4-{[2-methoxy-5-(trifluoromethyl)pyridin-3-yl]methoxy}-1-{[(propan-2-yl)oxy]carbonyl}pyrrolidine-2-carboxylic acid]: the “Maximum % activity (with co-corrector)” value is “++ (≥150 and <350)”; the “Maximum % activity (without co-corrector)” value is listed as “+ (<100)”. Further, the EC50 under setting [1] lay in the range of 1000 to 10000 nM. The EC50 under setting [2] is less than 1000 nM.

For the compound `COc1ncc(C(C)(C)C)cc1CO[C@H]1[C@H](C(C)(C)C)[C@@H](C(=O)O)N(C(=O)C2CCCCC2)[C@H]1c1ccccc1F` [Example 62, (2S,3R,4S,5S)-3-tert-butyl-4-[(5-tert-butyl-2-methoxypyridin-3-yl)methoxy]-1-(cyclohexanecarbonyl)-5-(2-fluorophenyl)pyrrolidine-2-carboxylic acid], the “Maximum % activity (with co-corrector)” value was “+++ (≥350)”; the “Maximum % activity (without co-corrector)” value was “++ (≥100 and <200)”. Also, under setting [1], the EC50 was less than 1000 nM. The EC50 under setting [2] was less than 1000 nM.

As to `COc1ncc(C(F)(F)F)cc1CO[C@H]1[C@H](C(C)(C)C)[C@@H](C(=O)O)N(C(=O)OC(C)C)[C@H]1c1c(F)cccc1F` [Example 167, (2S,3R,4S,5S)-3-tert-butyl-5-(2,6-difluorophenyl)-4-{[2-methoxy-5-(trifluoromethyl)pyridin-3-yl]methoxy}-1-{[(propan-2-yl)oxy]carbonyl}pyrrolidine-2-carboxylic acid], the “Maximum % activity (with co-corrector)” value is “++ (≥150 and <350)”; the “Maximum % activity (without co-corrector)” value is given as “+ (<100)”. In addition, the EC50 under setting [1] was in the range of 1000 to 10000 nM. Besides, under setting [2], the EC50 lay within 1000 to 10000 nM.

With `CCOc1cncc(-c2ccccc2[C@H]2[C@@H](OCc3cc(C(F)(F)F)cnc3OC)[C@H](C(C)(C)C)[C@@H](C(=O)O)N2C(=O)[C@@H]2CCCCO2)c1` [Example 209, (2S,3R,4S,5S)-3-tert-butyl-5-[2-(5-ethoxypyridin-3-yl)phenyl]-4-{[2-methoxy-5-(trifluoromethyl)pyridin-3-yl]methoxy}-1-[(2S)-oxane-2-carbonyl]pyrrolidine-2-carboxylic acid], the “Maximum % activity (with co-corrector)” value is “+++ (≥350)”; the “Maximum % activity (without co-corrector)” value is “++ (≥100 and <200)”. Also, the EC50 under setting [1] lay in the range of 1000 to 10000 nM. The EC50 under setting [2] is 1000 to 10000 nM.

As to `COc1ccc(C(F)(F)F)cc1C(O)CO[C@H]1[C@H](C(C)(C)C)[C@@H](C(=O)O)N(C(=O)[C@@H]2CCCCO2)[C@H]1c1ccccc1C` (stereo partly drawn) [Example 268, (2S,3R,4S,5S)-3-tert-butyl-4-{2-hydroxy-2-[2-methoxy-5-(trifluoromethyl)phenyl]ethoxy}-5-(2-methylphenyl)-1-[(2S)-oxane-2-carbonyl]pyrrolidine-2-carboxylic acid], the “Maximum % activity (with co-corrector)” value is on record as “+++ (≥350)” and the “Maximum % activity (without co-corrector)” value is recorded as “+ (<100)”. Besides, under setting [1], the EC50 was in the range of 1000 to 10000 nM. In addition, under setting [2], the EC50 was 1000 to 10000 nM.

As for `COc1ncc(C(F)(F)F)cc1CO[C@H]1[C@H](C(C)(C)C)[C@@H](C(=O)O)N(C(=O)C2CCCCC2)[C@H]1c1ccccc1F` [Example 48, (2S,3R,4S,5S)-3-tert-butyl-1-(cyclohexanecarbonyl)-5-(2-fluorophenyl)-4-{[2-methoxy-5-(trifluoromethyl)pyridin-3-yl]methoxy}pyrrolidine-2-carboxylic acid], the “Maximum % activity (with co-corrector)” value was “+++ (≥350)”; the “Maximum % activity (without co-corrector)” value was “++ (≥100 and <200)”. Further, under setting [1], the EC50 lay within 1000 to 10000 nM. Also, under setting [2], the EC50 lay in the range of 1000 to 10000 nM.

Turning to `COc1ncc(C(F)(F)F)cc1CO[C@H]1[C@H](C(C)(C)C)[C@@H](C(=O)O)N(C(=O)[C@@H]2CCCCO2)[C@H]1c1ccccc1CC(C)C` [Example 213, (2S,3R,4S,5S)-3-tert-butyl-4-{[2-methoxy-5-(trifluoromethyl)pyridin-3-yl]methoxy}-5-[2-(2-methylpropyl)phenyl]-1-[(2S)-oxane-2-carbonyl]pyrrolidine-2-carboxylic acid], the “Maximum % activity (with co-corrector)” value is “+++ (≥350)” and the “Maximum % activity (without co-corrector)” value is “+++ (≥200)”. The EC50 under setting [1] was in the range of 1000 to 10000 nM. Further, the EC50 under setting [2] was less than 1000 nM.

With `COc1ncc(C(F)(F)F)cc1C#CCO[C@H]1[C@H](C(C)(C)C)[C@@H](C(=O)O)N(C(=O)OC(C)C)[C@H]1c1ccccc1` [Example 277, (2S,3R,4S,5S)-3-tert-butyl-4-({3-[2-methoxy-5-(trifluoromethyl)pyridin-3-yl]prop-2-yn-1-yl}oxy)-5-phenyl-1-{[(propan-2-yl)oxy]carbonyl}pyrrolidine-2-carboxylic acid], the “Maximum % activity (with co-corrector)” value was “+++ (≥350)” and the “Maximum % activity (without co-corrector)” value is listed as “+ (<100)”. Also, the EC50 under setting [1] was less than 1000 nM. The EC50 under setting [2] is less than 1000 nM.

With `COc1ncnc(OC)c1CO[C@@H]1[C@@H](C(C)(C)C)[C@H](C(=O)O)N(C(=O)C2CCCCC2)[C@@H]1c1ccccc1` (racemic) [Example 10, rac-(2R,3S,4R,5R)-3-tert-butyl-1-(cyclohexanecarbonyl)-4-[(4,6-dimethoxypyrimidin-5-yl)methoxy]-5-phenylpyrrolidine-2-carboxylic acid], the “Maximum % activity (with co-corrector)” value is “+++ (≥350)” and the “Maximum % activity (without co-corrector)” value is given as “+++ (≥200)”. The EC50 under setting [1] lay in the range of 1000 to 10000 nM. Moreover, under setting [2], the EC50 was 1000 to 10000 nM.

On to `COc1ncc(C(F)(F)F)cc1CO[C@H]1[C@H](C(C)(C)C)[C@@H](C(=O)O)N(C(=O)[C@H]2CCCCO2)[C@H]1c1cccc(C(C)(C)C)c1` (single isomer, unassigned) [Example 157], for which the “Maximum % activity (with co-corrector)” value is “++ (≥150 and <350)”; the “Maximum % activity (without co-corrector)” value is recorded as “+ (<100)”. In addition, the EC50 under setting [1] is less than 1000 nM. Further, under setting [2], the EC50 is less than 1000 nM.

Consider `COc1ccc(C(C)(C)C#N)cc1CO[C@H]1[C@H](C(C)(C)C)[C@@H](C(=O)O)N(C(=O)[C@@H]2CCCCO2)[C@H]1c1ccccc1C` [Example 187, (2S,3R,4S,5S)-3-tert-butyl-4-{[5-(2-cyanopropan-2-yl)-2-methoxyphenyl]methoxy}-5-(2-methylphenyl)-1-[(2S)-oxane-2-carbonyl]pyrrolidine-2-carboxylic acid], for which the “Maximum % activity (with co-corrector)” value was “+++ (≥350)” and the “Maximum % activity (without co-corrector)” value is on record as “+++ (≥200)”. Moreover, the EC50 under setting [1] lay within 1000 to 10000 nM. Moreover, the EC50 under setting [2] was less than 1000 nM.

For the compound `COc1ccc(C(C)(C)C)cc1CO[C@H]1[C@H](C(C)(C)C)[C@@H](C(=O)O)N(C(=O)C2CCCCC2)[C@H]1c1ccccc1F` [Example 50, (2S,3R,4S,5S)-3-tert-butyl-4-[(5-tert-butyl-2-methoxyphenyl)methoxy]-1-(cyclohexanecarbonyl)-5-(2-fluorophenyl)pyrrolidine-2-carboxylic acid], the “Maximum % activity (with co-corrector)” value is “+++ (≥350)” and the “Maximum % activity (without co-corrector)” value was “+++ (≥200)”. The EC50 under setting [1] was less than 1000 nM. Further, under setting [2], the EC50 was less than 1000 nM.

With `CCOC(=O)N1[C@H](C(=O)O)[C@@H](C(C)(C)C)[C@H](OCc2cc(C(F)(F)F)cnc2OC)[C@@H]1c1cccc(C(C)(C)C)c1` [Example 152, (2S,3R,4S,5S)-3-tert-butyl-5-(3-tert-butylphenyl)-1-(ethoxycarbonyl)-4-{[2-methoxy-5-(trifluoromethyl)pyridin-3-yl]methoxy}pyrrolidine-2-carboxylic acid], the “Maximum % activity (with co-corrector)” value was “++ (≥150 and <350)”; the “Maximum % activity (without co-corrector)” value is “+ (<100)”. The EC50 under setting [1] was less than 1000 nM. The EC50 under setting [2] lay in the range of 1000 to 10000 nM.

As for `COc1ncc(C(C)(C)C)cc1CO[C@H]1[C@H](C(C)(C)C)[C@@H](C(=O)O)N(C(=O)OC(C)C)[C@H]1c1ccccc1F` [Example 74, (2S,3R,4S,5S)-3-tert-butyl-4-[(5-tert-butyl-2-methoxypyridin-3-yl)methoxy]-5-(2-fluorophenyl)-1-{[(propan-2-yl)oxy]carbonyl}pyrrolidine-2-carboxylic acid], the “Maximum % activity (with co-corrector)” value is reported as “+++ (≥350)”; the “Maximum % activity (without co-corrector)” value is “++ (≥100 and <200)”. For the same compound, the half-maximal effective concentration (EC50) under setting [1] lay in the range of 1000 to 10000 nM. Under setting [2], the EC50 is 1000 to 10000 nM.

For the compound `COc1ccc(C(F)(F)F)cc1C(=O)CO[C@H]1[C@H](C(C)(C)C)[C@@H](C(=O)O)N(C(=O)[C@@H]2CCCCO2)[C@H]1c1ccccc1C` [Example 264, (2S,3R,4S,5S)-3-tert-butyl-4-{2-[2-methoxy-5-(trifluoromethyl)phenyl]-2-oxoethoxy}-5-(2-methylphenyl)-1-[(2S)-oxane-2-carbonyl]pyrrolidine-2-carboxylic acid], the “Maximum % activity (with co-corrector)” value is on record as “+++ (≥350)” and the “Maximum % activity (without co-corrector)” value is on record as “+ (<100)”. Under setting [1], the EC50 fell in the range of 1000 to 10000 nM. Also, under setting [2], the EC50 is 1000 to 10000 nM.

What is called EC50 is the midpoint of the concentration-response curve.
